Source: patent US20050153304A1, “Multivariate profiling of complex biological regulatory pathways” (Government of the USA, as represented by the secretary, …, priority 2003, published 2005)

Legend:
[1] = system: Jurkat T-cells, 8 promoter elements; experiment: Principal component analysis of vector differences between mitogen profiles in the absence and presence of drug (8 promoter elements); format: cell-based, human; conditions: subtraction vectors versus control mitogen profiles, FIG. 5
Protocol: The mitogen activation profiles under control conditions shown in red FIG. 4 were used to calculate subtraction vectors for each profile in the presence of a drug treatment. These vectors were then analyzed by PCA to show similarities and differences in targeting.
(§1) A human acute lymphoblastic T-cell leukemia cell line (Jurkat) was individually electroporated with 5 ug of a luciferase reporter plasmids driven by the interleukin 2 (IL-2) promoter, the NFAT element of the IL-2 promoter, the CD28RE-AP1 element of the IL-2 promoter, a consensus AP-1 element, a consensus NF-kappa B element, a consensus CRE element and the co-transfection of a Gal4 binding site or upstream activation sequence (UAS) driving a luciferase reporter in combination with either a full length Gal4-p300 fusion (FL) or a N-terminal domain fusion of p300 (amino acids 1-743). Electroporation was performed in a 96 well format with a BTX 96-well gold electrode. Cells were electroporated at 10 millions cells per well with each experiment repeated in triplicates. Following electroporation cells were stimulated with various combination of T-cell mitogens (see Table 1). Cells were harvested 5 hours after stimulation and assayed for luciferase activity by a 96 well luminometer. […]

[2] = system: NF-kappa B pathway; experiment: Luciferase reporter transfection in mitogen-stimulated Jurkat T-cells, principal component analysis of mitogen profiles; format: cell-based, human; conditions: co-stimulation with anti-CD28, FIG. 4 and FIG. 6
Protocol: as §1, with “luminometer. Data were normalized first for fold activation for each experiment and then inputted into an activation matrix where the data were normalized to percent maximum stimulation.” for “luminometer.”

Substance: IGF-1: insulin-like growth factor one, a peptide growth factor
- drug targeting profile (similarity of pathways targeted) [1]: appear to target the same pathway
- effect on NF-kappa B pathway in activated T-cells [2]: synergies with anti-CD28 stimulation in activated T-cells to upregulate the NF-kappa B pathway
